Data reported in US20250127896A1, “CHIMERIC TIM4 RECEPTORS AND USES THEREOF” (CERO THERAPEUTICS HOLDINGS, INC., priority 2021, published 2025).
Entries after “also recorded” stand apart in the source; their conditions may differ.

How the values were obtained:
[1] = test system: Jeko1 TMEM30A−/− cells; assay: Uptake/engulfment of pHrodo-labeled JeKo-1 PS+ (TMEM30A−/−) cells by CER T cells; type: cell-based; conditions: for uptake/engulfment of JeKo-1 PS+ (TMEM30A−/−) tumor cell fragments: pHrodo label, in vitro co-culture
Experimental: FIG. 20: FACs and imaging-based detection of pHrodo dye-labeled tumor cell phagocytosis and endocytosis.
Statistical analysis was performed using 2-way ANOVA.

[2] = test system: A2780 cells; conditions: for A2780 cells eliminated, single agent: compared to untreated; for A2780 cells eliminated, combination with niraparib: niraparib 0.5 μM; for A2780 cells eliminated, combination with niraparib / A2780 cells eliminated, combination with olaparib: after 5 days of co-culture; for A2780 cells eliminated, combination with olaparib: olaparib 1.5 μM
Experimental: FIG. 34B: At 120 hours, the ratio of cells remaining in treated samples compared to untreated A2780 samples was quantified using the incucyte data from FIG. 34A. FIG. 34C: Proliferation of CER T cells in co-culture assays.
At day 0, media was exchanged and donor T cells from three subjects (FIG. 28) transduced with CER-1234, CER-1236, or control CER-1183 (FIG. 27A) were added at various effector:target ratios to A2780 cells treated with PARPi to assess chimeric Tim4 receptor-T cell activation, cytokine production, proliferation, and cytotoxic responses. Chimeric Tim4 receptor-T cells immunophenotyping and bulk supernatant analysis was performed on day 2 and day 5 following initiation of co-culture.
CER T-cell cytotoxic function was evaluated using the Incucyte® live-cell analysis system in co-culture assays with A2780 cells. A2780 cells engineered to constitutively express mCherry were pretreated with 1.5 μM olaparib, 0.5 μM niraparib or no drug for 96 hours. CER T cells (expanded for 6 days after transduction) in T-cell optimizer media containing IL-2, IL-7, and IL-15 were co-cultured with A2780 cells at an effector:target (E:T) ratio of 1:2 in the presence of the same concentrations of olaparib or niraparib.

[3] = test system: A2780 ovarian cancer cells; assay: Cytokine production by CER T cells co-cultured with PARP inhibitor-treated A2780 cells; type: cell-based, human; conditions: for TNF-α, IFN-γ, granzyme B induction: PARP inhibitor-treated A2780, E:T 1:1
Experimental: FIGS. 35A-35C: Cytokine production by CER T cells in response to co-culture with PARP inhibitor-treated A2780 ovarian cancer cells. Samples from left to right: no drug, niraparib treated, and olaparib treated. FIG. 35A-IFN-γ. FIG. 35B-TNF-α. FIG. 35C-granzyme B.
CER T-cell activation was assessed by measuring induction of IFN-gamma by plate- and cell-based assays. Single induction plate assay: varying concentrations of phosphatidylserine (PS) or phosphatidylethanolamine (PE), a control membrane phospholipid not recognized by wild type TIM-4 (wtTIM-4), were coated onto high-binding tissue culture plates. CER T cells were added and IFN-γ levels were measured 24 hours after ligand exposure by ELISA. EC50 concentrations were determined by nonlinear regression (agonist vs. response-variable slope (4 parameters)). Induction by recursive stimulation plate assay: CER T cells were added to phosphatidylserine coated plates (2.5-20 μg/mL PS coating). Five days later, CER T cells were transferred to uncoated plates with fresh T cell optimizer media for 24 hours. Then, CER T cells were transferred again to a fresh PS coated plate. Supernatant was collected to assess IFN-γ induction by ELISA at various timepoints during re-stimulation (24, 72, and 120 hours). Cell-based assay: cytokine induction was assessed by multiparametric ELISA using conditioned supernatants harvested after 120 hours from the cytotoxicity assay described below.

[4] = test system: A2780 ovarian cancer cells; assay: T cell phenotype (CCR7, CD4/CD8) and proliferation in A2780 / PARP inhibitor co-culture; type: cell-based, human; conditions: for CCR7 expression (% CCR7+ cells in Tim4+ T cells): 120 hours co-culture with olaparib-treated A2780 cells; for CER T cell proliferation: co-cultures treated with PARPi vs wtTIM-4 T cells or no drug, E:T 1:1
Description: FIGS. 27A-27B show a (FIG. 27A) schematic of chimeric Tim4 receptors, CER-1234 and CER1236 of the present disclosure; and (FIG. 27B) a schematic of assay set up for assessing immune phenotype of the chimeric Tim4 receptors in co-culture with PARP inhibitor treated ovarian cancer cells. CER-1234 and CER1236 have an extracellular Tim4 binding domain, CD28 transmembrane domain, CD28 signaling domain, TLR2 signaling domain, and CD3ζ signaling domain, and showing the orientation of the signaling domains in the chimeric Tim4 receptor constructs. A control molecule, CER-1183, having a Tim4 extracellular binding domain, a Tim4 transmembrane domain, and Tim4 signaling domain is also depicted.
Samples on bar graph from left to right: A2780+ T cell, A2780+ T cell +niraparib, and A2780+ T cell +olaparib. […] For FIGS. 29A-29C, co-culture conditions A2780+ T cell; A2780+ T cell +niraparib; A27080+ T cell +olaparib are shown from left to right in the bar graph for each donor T cell sample.
FIGS. 30A-30C show CD4/CD8 T cell ratio at 120 hours of co-culture of chimeric Tim4 receptor transduced T cells, olaparib or niraparib, and target A2780 ovarian cancer cells. Samples on bar graph from left to right: A2780+ T cell, A2780+T cell +niraparib, and A2780+ T cell +olaparib. […] For FIGS. 4A-4C, co-culture conditions A2780+ T cell; A2780+ T cell +niraparib; A27080+T cell +olaparib are shown from left to right in the bar graph for each donor T cell sample.
Expression of TIM-4, CD45RA, and CCR7 as well as CD4/CD8 ratios were evaluated by flow cytometry using commercially available fluorochrome-conjugated antibodies. Proliferation was measured by flow cytometry using precision count beads to determine the absolute counts of viable T cells at the end of the co-culture. T-cell proliferation is reported as the fold expansion of T cell counts at 120 hours relative to 0 hours.

[5] = either drug combined, 96 hours, compared to CER-1234 with no drug

Row | Substance | uptake/engulfment of JeKo-1 PS+ (TMEM30A−/−) tumor cell fragments [1] | cytotoxic activity of CER T cells alone against A2780 cells [2] | A2780 cells eliminated, single agent [2] [%] | A2780 cells eliminated, combination with niraparib [2] [%] | A2780 cells eliminated, combination with olaparib [2] [%] | TNF-α, IFN-γ, granzyme B induction [3] | Interferon-γ increase [3, 5] [fold] | granzyme B increase [3, 5] | CCR7 expression (% CCR7+ cells in Tim4+ T cells) [4] | CER T cell proliferation [4] | phagocytic index (frequency and magnitude of uptake) ([1]; compared to wtTim-4, CER1250 and CER1236+actin polymerization inhibitor) | CD4/CD8 ratio ([4]; 120 hours co-culture with PARPi-treated A2780, donor 38 and donor 41)
1 | CER-1234: chimeric Tim4 receptor: Tim4 binding domain-CD28tm-CD28-TLR2 TIR-CD3z, SEQ ID NO:18; tested as transduced T cells | increased uptake of JeKo-1 PS^+ tumor cell fragments | limited cytotoxic activity | 39 | 58 | 66 | induced | 7 | 5-7 fold | Higher CCR7 expression | proliferated in co-cultures treated with PARPi | – | –
2 | CER-1236: chimeric Tim4 receptor: Tim4 binding domain-CD28tm-CD28-CD3z-TLR2 TIR, SEQ ID NO:19; tested as transduced T cells | increased uptake of JeKo-1 PS^+ tumor cell fragments; also recorded: exhibited increased engulfment of Jeko1 TMEM30A^−/− cells | limited cytotoxic activity | 19 | 81 | 73 | induced | – | – | Higher CCR7 expression | proliferated in co-cultures treated with PARPi | Higher frequency and magnitude of uptake | higher CD4/CD8 ratios
